Measurements taken from patent US20160095867A1, “BET INHIBITION THERAPY FOR HEART DISEASE” (DANA-FARBER CANCER INSTITUTE, INC., priority 2013, published 2016).

test system: NRVM; assay: PE-mediated cardiomyocyte hypertrophy in NRVM (cell area measurement); format: cell-based, rat; conditions: equimolar doses (500 nM), PE 100 μM, 48 hours
Protocol: NRVM were isolated from the hearts of 2 day old Sprague-Dawley rat pups (Charles River) and maintained under standard conditions as described (Haldar et al., 2010). The cells were differentially plated for 1.5 h in cell culture dishes to remove contaminating non-myocytes. Unless otherwise stated, NRVM were plated at a density of 10^5 cells/mL. Cells were initially plated in growth medium (DMEM supplemented with 5% FBS, 100 U/mL penicillin-streptomycin, and 2 mM L-glutamine) for 24-36 hours and maintained in serum-free media thereafter (DMEM supplemented with 0.1% BSA, 1% insulin-transferrin-selenium liquid media supplement (Sigma 13146), 100 U/mL penicillin-streptomycin, and 2 mM L-glutamine). Media was changed every 2-3 days. Prior to stimulation with agonists, NRVM were maintained in serum-free medium for 48-72 hours. For hypertrophic stimulation, NRVM were incubated with JQ1 versus DMSO at indicated concentrations for 6 h followed by stimulation with PE (100 μM) for indicated timepoints.
NRVM were plated on glass coverslips in 6-well dishes at a density of 10^5 cells/mL. After treatments, cells were briefly fixed in PBS containing 2% PFA, permeabilized with PBST/0.1% Triton X-100, and blocked in PBST/5% horse serum. Primary antibody was anti-sarcomeric α-actinin (Sigma A7811) at 1:800. Fluorophore-tagged anti-mouse secondary antibody (α-mouse Alexa 488 green) was used at 1:1000 dilution. Coverslips were mounted on glass slides with mounting media containing DAPI. Quantitation of cardiomyocyte cell surface area was performed on α-actinin-stained cardiomyocytes using fluorescent microscopy and NIH Image J software as previously described (Liang et al., 2001). Analysis consisted of at least 100 cardiomyocytes in 20-30 fields at 400× magnification. This process was replicated in a least three independent experiments, and the data were combined.

SMILES | inhibition of agonist-induced cardiomyocyte hypertrophy (cell area)
COc1cc(OC)c2c(=O)[nH]c(-c3cc(C)c(OCCO)c(C)c3)nc2c1 [RVX-208] | inhibition of agonist-induced cardiomyocyte hypertrophy was indeed a class effect
COc1cc2c(cc1-c1c(C)noc1C)ncc1[nH]c(=O)n([C@H](C)c3ccccn3)c12 [iBET-151] | inhibition of agonist-induced cardiomyocyte hypertrophy was indeed a class effect
CCNC(=O)C[C@@H]1N=C(c2ccc(Cl)cc2)c2cc(OC)ccc2-n2c(C)nnc21 [iBET] | inhibition of agonist-induced cardiomyocyte hypertrophy was indeed a class effect
